Test system: VE-cadherin (Cdh5) mRNA
Experiment: In vivo endothelial Cdh5 gene silencing after intravenous siCdh5 LNP, tissue mRNA by RT-qPCR
Set-up: species or system mice
Settings: for RNA delivery to endothelial cells vs DOTAP and EDMPC: formulation screening, summary statement
Excerpt: Cadherin (Cdh5), also known as vascular endothelial cadherin (VE-cadherin) is a useful target gene to evaluate endothelial cell siRNA delivery in that Cdh5 expression is strictly limited to endothelial cells. By quantifying Cdh5 mRNA remaining in the tissues after siCdh5 administration, RNA delivery efficiency to endothelial cells can be evaluated.
Animal Experiments: All animal studies were approved by the MIT Institutional Animal Care and Use Committee (CAC) and were consistent with local, state, and federal regulations as applicable. All experimental procedures were performed with ethical compliance and approval under the guidelines for Division of Comparative Medicine by Massachusetts Institute of Technology. Female C57BL/6 mice (6 weeks) were obtained from Jackson Laboratory, housed in an MIT animal facility, and acclimated for at least 3 days before the initiation of a study.
For intravenous administration, siRNA-lipid nanoparticles diluted in PBS were injected […] using 29 g, 3/10 cc insulin syringes (BD Biosciences) after gentle warming of the animals using a heat lamp. For intramuscular administration, siRNA-lipid nanoparticles diluted in PBS were injected […] using 29 g, 3/10 cc insulin syringes (BD Biosciences).
48-72 hours after injection, organs or tissues including the heart, liver, spleen, lung, kidneys, muscle (quadriceps), and brain were collected and soaked in RNAlater solution (Thermo Fisher) for 12-48 hours at 4° C. and stored at −20° C. after the removal of RNAlater.
Tissue mRNA Quantification by RT-qPCR: Total RNA was isolated from tissues using the TRIzol (Thermo Fisher) and Direct-zol-96 MagBead (Zymo Research), or Quick-RNA MagBead (Zymo Research). Briefly, tissue punches were placed in a deep-well 96 well plate with 4-mm stainless beads and lysed with 350 μL TRIzol, or 250 μL DNA/RNA Shield (Zymo Reaearch) using a GenoGrinder2010. Total RNA was further purified using Direct-zol-96 MagBead (Zymo Research) or Quick-RNA MagBead (Zymo Research) according to the manufacturer's protocol.
cDNA was synthesized using ABI High Capacity cDNA Reverse Transcription Kit (Applied Biosystems #4368814) according to manufacturer instructions. Briefly, 5 μl of a master mix containing 1 μl 10X Buffer, 0.4 μl 25X dNTPs, 1 μl 10X Random primers, 0.5 μl Reverse Transcriptase, and 2.1 μl of water per reaction was added to 5 μl total RNA solution that was isolated using the above protocol. Plates were sealed, mixed, and incubated on a thermal cycler for 10 minutes at 25° C., followed by 2 hours at 37° C. and 5 minutes at 85° C.
Gene expression was analyzed in qPCR with Luna® Universal Probe RT-qPCR Kit (NEB) and Taqman probes-Cdh5 (Mm00486938_m1), and Gusb (Mm01197698_m1) or B2m (Mm00437762_m1). Samples were amplified using a LightCycler 480 qPCR machine (Roche). Cdh5 expression was normalized to B2m or Gusb.

[1] = Example 3: 20% cationic lipid LNPs, siCdh5 0.5 mg/kg i.v.

SMILES | delivery to endothelial cells among screened cationic lipids [1] | RNA delivery to endothelial cells vs DOTAP and EDMPC | endothelial delivery, DPTAP (16:0 TAP) vs DSTAP (18:0 TAP) [1] | endothelial delivery, EDMPC (14:0 EPC) vs EDLPC (12:0 EPC) [1]
CCCCCCCCCCCCCC(=O)OCCN(CCOC(=O)CCCCCCCCCCCCC)C(=O)C[N+](C)(C)C [DC-6-14, O,O′-ditetradecanoyl-N-(a-trimethylammonioacetyl) diethanolamine] | most efficacious delivery to endothelial cells | much more efficiently |  | 
CCCCCCCCCCCCCCCC(=O)OCC(C[N+](C)(C)C)OC(=O)CCCCCCCCCCCCCCC (centres unmarked) [DPTAP, 1,2-dipalmitoyl-3-trimethylammonium-propane] | most efficacious delivery to endothelial cells | much more efficiently | significantly more efficient endothelial delivery | 
CCCCCCCCCCCCCC(=O)OC[C@H](COP(=O)(OCC)OCC[N+](C)(C)C)OC(=O)CCCCCCCCCCCCC (some centres unmarked) [EDMPC, 1,2-dimyristoyl-sn-glycero-3-ethylphosphocholine] |  |  |  | more efficient endothelial delivery
CCCCCCCCCCCCCCCC(=O)OC[C@H](COP(=O)(OCC)OCC[N+](C)(C)C)OC(=O)CCCCCCCCCCCCCCC (some centres unmarked) [EDPPC, 1,2-dipalmitoyl-sn-glycero-3-ethylphosphocholine] | most efficacious delivery to endothelial cells | much more efficiently |  | 
